Patent US8163737B2 (Vertex Pharmaceuticals Incorporated, priority 2006, dated 2012)

Each compound was assayed against endogenous CGRP receptor (Homo sapiens, UniProt O60894+Q16602) (assay: CGRP functional antagonism using SK-N-MC-BLA (4C10), β-lactamase transcriptional reporter assay). Settings: SK-N-MC (4C10) cells, inhibition of β-lactamase expression in the presence of 200 pM CGRP.
Assay type: cell-based
Description: Measuring CGRP Functional Antagonism Using SK-N-MC-BLA (4C10):
CGRP functional antagonism was characterized in a cell based transcriptional assay using a recombinant SK-N-MC line. To introduce the transcriptional reporter system, SK-N-MC cell line was transduced with a retroviral vector containing β-lactamase gene downstream of cAMP responsive promoter. The expression of β-lactamase is triggered by cAMP increase that is a downstream event of activation of endogenous CGRP receptor. Single clones were separated using Fluorescent Activated Cell Sorting (FACS) based on CGRP induced β-lactamase activity. β-lactamase activity was measured using a fluorescence energy transfer (FRET) dye, CCF4. […] To evaluate functional antagonist activity of compounds in SK-N-MC (4C10) line, compounds were evaluated for their inhibition of β-lactamase expression in the presence of CGRP.
SK-N-MC (4C10) was cultured in Minimal Essential Media (MEM) (Invitrogen) supplemented with 1 mM non-essential amino acids solution (Invitrogen), 100 units/ml Penicillin-Streptomycin (Invitrogen), 1 mM sodium pyruvate (Invitrogen) and 10% fetal bovine serum. For the β-lactamase assay, low serum, 1% FBS in MEM was used. 30,000 cells were plated into each wells of poly-D-lysine coated 384-well plate (Becton Dickinson) a day prior to the assay. SK-N-MC (4C10) was preincubated with compounds for 30 min before the addition of 200 pM CGRP. The assay was incubated for 3 hours at 37° C. to allow β-lactamase expression. CCF4 dye was added and incubated for 2 hours at room temperature. […] Curve fitting and IC50 calculation were carried about using MOD3.

Sequence of endogenous CGRP receptor (Q16602 23-461): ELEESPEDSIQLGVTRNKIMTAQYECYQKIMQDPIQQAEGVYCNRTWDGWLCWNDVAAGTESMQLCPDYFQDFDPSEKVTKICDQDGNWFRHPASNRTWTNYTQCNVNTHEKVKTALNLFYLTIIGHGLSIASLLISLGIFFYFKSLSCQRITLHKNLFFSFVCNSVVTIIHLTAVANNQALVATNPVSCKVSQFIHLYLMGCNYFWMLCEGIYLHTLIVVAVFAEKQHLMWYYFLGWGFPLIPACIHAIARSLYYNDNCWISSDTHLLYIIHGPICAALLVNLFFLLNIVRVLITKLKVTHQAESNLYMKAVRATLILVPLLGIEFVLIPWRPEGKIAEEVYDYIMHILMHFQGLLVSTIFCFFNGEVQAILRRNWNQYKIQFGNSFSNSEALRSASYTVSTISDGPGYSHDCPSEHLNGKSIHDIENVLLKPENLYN
Sequence of endogenous CGRP receptor (O60894 27-148): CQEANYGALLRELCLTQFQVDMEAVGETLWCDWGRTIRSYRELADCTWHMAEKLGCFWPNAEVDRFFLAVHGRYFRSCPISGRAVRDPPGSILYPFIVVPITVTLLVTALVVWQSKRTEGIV

Row | Structure (SMILES) | IC50 [µM]
1 | CC(C)CCN1C(=O)C(CC(=O)N2CCC(N3Cc4ccccc4NC3=O)CC2)SC1C1CCOCC1 (centres unmarked) [Compound 201] | 1 to 5
2 | Cc1cc(C)c(C2SC(CC(=O)N3CCC(N4CCc5ccccc5NC4=O)CC3)C(=O)N2CCC(C)C)c(C)c1 (centres unmarked) [Compound 21] | < 1
3 | CC(C)(C)CCN1C(=O)[C@H](CC(=O)N2CCC(N3CCc4ccccc4NC3=O)CC2)SC1c1cccc(F)c1N1CCNCC1 (some centres unmarked) [Compound 398] | > 5
4 | O=C(CC1SC(c2ccccc2)N(CCC(F)(F)F)C1=O)N1CCC(N2Cc3ccccc3NC2=O)CC1 (centres unmarked) [Compound 191] | < 1
5 | CC(C)(C)CCN1C(=O)C(CC(=O)N2CCC(N3CCc4ccccc4NC3=O)CC2)SC1c1cccc2cc[nH]c12 (centres unmarked) [Compound 277] | < 1
6 | CC(C)CCN1C(=O)C(CC(=O)N2CCC(N3CCc4ccccc4NC3=O)CC2)SC1CCc1ccccc1 (centres unmarked) [Compound 262] | 1 to 5
7 | CC(C)(C)CCN1C(=O)C(CC(=O)N2CCC(n3c(=O)[nH]c4ncccc43)CC2)SC1c1cccc(F)c1N1CCN(CC(F)(F)F)CC1 (centres unmarked) [Compound 393] | < 1
8 | CN1CCN(c2ccccc2C2SC(CC(=O)N3CCC4(CC3)CC(=O)c3ccccc3O4)C(=O)N2CCC(C)(C)C)CC1 (centres unmarked) [Compound 332] | > 5
9 | CC(C)(C)CCN1C(=O)C(CC(=O)N2CCC(N3Cc4ccccc4NC3=O)CC2)SC1c1ccc(F)cc1F (centres unmarked) [Compound 234] | < 1
10 | CC(C)CCN1C(=O)C(CC(=O)N2CCC(N3Cc4ccccc4NC3=O)CC2)SC1c1cc(C(F)(F)F)ccc1F (centres unmarked) [Compound 136] | < 1
11 | CC(C)CCN1C(=O)C(CC(=O)N2CCC(NC(=O)Nc3ccccn3)CC2)SC1c1ccccc1 (centres unmarked) [Compound 200] | > 5
12 | CC(C)CCN1C(=O)C(CC(=O)N2CCC(N3Cc4ccccc4NC3=O)CC2)SC12C=CC(C)(C)CC2 (centres unmarked) [Compound 241] | 1 to 5
13 | CC(C)(C)CCN1C(=O)C(CC(=O)N2CCC(N3CCc4ccccc4NC3=O)CC2)SC1c1c(F)cccc1F (centres unmarked) [Compound 217] | < 1
14 | O=C(CC1SC(c2ccccc2)N(Cc2cccnc2)C1=O)N1CCC(N2CCc3ccccc3NC2=O)CC1 (centres unmarked) [Compound 185] | < 1
15 | CC(C)C[C@H](CO)N1C(=O)C(CC(=O)N2CCC(N3Cc4ccccc4NC3=O)CC2)SC1c1ccccc1 (some centres unmarked) [Compound 238] | 1 to 5
16 | CN1CCC(N2CCN(c3ccccc3C3SC(CC(=O)N4CCC(n5c(=O)[nH]c6ncccc65)CC4)C(=O)N3CCC(C)(C)C)CC2)CC1 (centres unmarked) [Compound 381] | > 5
17 | CCN1CCN(c2c(F)cccc2C2SC(CC(=O)N3CCC(n4cc(-c5ccccc5)[nH]c4=O)CC3)C(=O)N2CCC(C)(C)C)CC1 (centres unmarked) [Compound 346] | < 1
18 | CCCCN1CCN(c2ccccc2C2SC(CC(=O)N3CCC(N4Cc5ccccc5NC4=O)CC3)C(=O)N2CCC(C)(C)C)CC1 (centres unmarked) [Compound 364] | > 5
19 | CC(C)(C)CCN1C(=O)C(CC(=O)N2CCC(N3CCc4ccccc4NC3=O)CC2)SC12CCCc1ccccc12 (centres unmarked) [Compound 308] | < 1
20 | O=C(CC1SC(c2ccc(F)cc2F)N(CC2CCCCC2)C1=O)N1CCC(N2CCc3ccccc3NC2=O)CC1 (centres unmarked) [Compound 135] | < 1

Row | Structure (SMILES) | IC50 [µM]
21 | CN(C)CCCN(C)c1ccccc1C1SC(CC(=O)N2CCC(N3CCc4ccccc4NC3=O)CC2)C(=O)N1CCC(C)(C)C (centres unmarked) [Compound 385] | 1 to 5
22 | CN1CCCC1CCN1C(=O)C(CC(=O)N2CCC(N3Cc4ccccc4NC3=O)CC2)SC1c1ccccc1 (centres unmarked) [Compound 77] | > 5
23 | CC(C)CCN1C(=O)C(CC(=O)N2CCC(N3Cc4ccccc4NC3=O)CC2)SC1c1ccc(S(C)(=O)=O)cc1 (centres unmarked) [Compound 5] | 1 to 5
24 | CC(C)CCN1C(=O)C(CC(=O)N2CCC(N3Cc4ccccc4NC3=O)CC2)SC1c1ccc2c(c1)OCCN2C (centres unmarked) [Compound 232] | 1 to 5
25 | CC(C)CCN1C(=O)C(CC(=O)N2CCC(N3Cc4ccccc4NC3=O)CC2)SC1C(C)(C)C (centres unmarked) [Compound 75] | 1 to 5
26 | O=C(CC1SC(C2CCOCC2)N(c2ccc(N3CCOCC3)cc2)C1=O)N1CCC(n2c(=O)[nH]c3ncccc32)CC1 (centres unmarked) [Compound 426] | 1 to 5
27 | CC(C)CCN1C(=O)C(CC(=O)N2CCC3(CC2)CNC(=O)O3)SC1c1ccccc1 (centres unmarked) [Compound 261] | > 5
28 | CC(C)CCN1C(=O)C(CC(=O)N2CCC(N3Cc4ccccc4NC3=O)CC2)SC1c1ccc(C(C)(C)C)cc1 (centres unmarked) [Compound 197] | > 5
29 | CC(C)(C)CCN1C(=O)[C@H](CC(=O)N2CCC(O)(c3ccc(F)cc3)CC2)S[C@@H]1c1cccc(F)c1N1CCN(C(C)(C)C)CC1 [Compound 453] | < 1
30 | Cc1cccc(C)c1C1SC(CC(=O)N2CCC(N3Cc4ccccc4NC3=O)CC2)C(=O)N1CCC(C)C (centres unmarked) [Compound 134] | < 1
31 | CC(C)(C)CCN1C(=O)[C@H](CC(=O)N2CCC(n3c(=O)[nH]c4ncccc43)CC2)S[C@H]1c1cccc(F)c1N1CCC(O)C1 (some centres unmarked) [Compound 468] | < 1
32 | CC(C)CCN1C(=O)C(CC(=O)N2CCC(N3Cc4ccccc4NC3=O)CC2)SC1c1ccc(Cl)cc1 (centres unmarked) [Compound 158] | 1 to 5
33 | CC(C)N1CCN(c2c(F)cccc2C2S[C@@](C)(CC(=O)N3CCC(n4c(=O)[nH]c5ncccc54)CC3)C(=O)N2CCC(C)(C)C)CC1 (some centres unmarked) [Compound 445] | 1 to 5
34 | CC(C)CCN1C(=O)C(CC(=O)N2CCC(N3CCc4ccccc4NC3=O)CC2)SC1C1CCOCC1 (centres unmarked) [Compound 258] | 1 to 5
35 | CC(C)CCN1C(=O)C(CC(=O)N2CCC(N3Cc4ccccc4NC3=O)CC2)SC12CCOCC2 (centres unmarked) [Compound 196] | 1 to 5
36 | CC(C)(C)CCN1C(=O)[C@H](CC(=O)N2CCC(n3c(=O)[nH]c4ncccc43)CC2)S[C@H]1c1cccc(F)c1N1CCNCC1 [Compound 546] | < 1
37 | O=C(CC1SC(c2ccccc2)N(CC2CCCO2)C1=O)N1CCC(N2CCc3ccccc3NC2=O)CC1 (centres unmarked) [Compound 83] | < 1
38 | CC(C)(C)CCN1C(=O)C(CC(=O)N2CCC(n3c(=O)[nH]c4ccccc43)CC2)SC1c1ccccc1N1CCOCC1 (centres unmarked) [Compound 300] | < 1
39 | CC(=O)N1CC2(CCN(C(=O)CC3SC(c4ccccc4)N(CCC(C)C)C3=O)CC2)c2cc(C(F)(F)F)ccc21 (centres unmarked) [Compound 131] | > 5
40 | CC(C)CCN1C(=O)C(CC(=O)N2CCC(N3CCc4ccccc4NC3=O)CC2)SC1c1ccccc1N1CCCCC1 (centres unmarked) [Compound 215] | < 1

Row | Structure (SMILES) | IC50 [µM]
41 | CC(C)(C)CCN1C(=O)[C@H](CC(=O)N2CCC(N3CCc4ccccc4NC3=O)CC2)SC1c1cccc(F)c1N1CCNCC1 (some centres unmarked) [Compound 399] | > 5
42 | CC(C)CCN1C(=O)C(CC(=O)N2CCC(N3C(=O)Cc4ccccc43)CC2)SC1c1ccccc1 (centres unmarked) [Compound 270] | > 5
43 | C=CCN1C(=O)C(CC(=O)N2CCC(N3CCc4ccccc4NC3=O)CC2)SC1c1ccccc1 (centres unmarked) [Compound 96] | 1 to 5
44 | CC(C)CCN1C(=O)C(CC(=O)N2CCC(N3Cc4ccccc4NC3=O)CC2)SC1c1ccccc1OCc1ccccc1 (centres unmarked) [Compound 246] | < 1
45 | CN1CCN(c2ccccc2[C@H]2SC(CC(=O)N3CCC(n4c(=O)[nH]c5ncccc54)CC3)C(=O)N2CCC(C)(C)C)CC1 (some centres unmarked) [Compound 47] | < 1
46 | CC(C)(C)CCN1C(=O)[C@H](CC(=O)N2CCC(n3nnc4ccccc43)CC2)SC1c1cccc(F)c1N1CCN(C(C)(C)C)CC1 (some centres unmarked) [Compound 451] | 1 to 5
47 | CN1CCN(c2c(F)cccc2C2SC(CC(=O)N3CCC(N4Cc5ccccc5NC4=O)CC3)C(=O)N2CCC(C)(C)C)CC1 (centres unmarked) [Compound 323] | < 1
48 | CC(C)CCN1C(=O)C(CC(=O)N2CCC(N3Cc4ccccc4NC3=O)CC2)SC1c1ccc(Br)cc1 (centres unmarked) [Compound 242] | 1 to 5
49 | CC(C)(C)CC1SC(CC(=O)N2CCC(n3c(=O)[nH]c4ncccc43)CC2)C(=O)N1c1ccccc1N1CCCCC1 (centres unmarked) [Compound 428] | > 5
50 | CCC1SC(CC(=O)N2CCC(n3cc(-c4ccccc4)[nH]c3=O)CC2)C(=O)N1CC1CC1 (centres unmarked) [Compound 146] | > 5
51 | CC(C)CCN1C(=O)C(CC(=O)N2CCC(n3cc(-c4ccccc4)[nH]c3=O)CC2)SC1c1ccc(Cl)cc1 (centres unmarked) [Compound 112] | > 5
52 | CCOCCCN1C(=O)C(CC(=O)N2CCC(N3CCc4ccccc4NC3=O)CC2)SC1c1ccccc1 (centres unmarked) [Compound 4] | < 1
53 | O=C(CC1SC(c2cccc(F)c2F)N(CC2CCCCC2)C1=O)N1CCC(N2Cc3ccccc3NC2=O)CC1 (centres unmarked) [Compound 92] | < 1
54 | Cc1ccc(C2SC(CC(=O)N3CCC(N4Cc5ccccc5NC4=O)CC3)C(=O)N2CCC(C)C)c(C)c1 (centres unmarked) [Compound 222] | < 1
55 | CCCN1C(=O)C(CC(=O)N2CCC(N3CCc4ccccc4NC3=O)CC2)SC1c1ccccc1 (centres unmarked) [Compound 38] | < 1
56 | CC(C)(C)CCN1C(=O)[C@H](CC(=O)N2CCC(N3Cc4ccccc4NC3=O)CC2)SC1c1cccc(F)c1N1CCC(N)C1 (some centres unmarked) [Compound 467] | 1 to 5
57 | CN1CCCN(c2ccccc2C2SC(CC(=O)N3CCC(N4Cc5ccccc5NC4=O)CC3)C(=O)N2CCC(C)(C)C)CC1 (centres unmarked) [Compound 369] | 1 to 5
58 | CC(C)(C)CCN1C(=O)[C@H](CC(=O)N2CCC(N3Cc4ccccc4NC3=O)CC2)S[C@H]1c1cccc(F)c1N1CCC(N)C1 (some centres unmarked) [Compound 472] | < 1
59 | C[C@@H]1CN(c2c(F)cccc2[C@@H]2S[C@@H](CC(=O)N3CCC(N4CCc5ccccc5NC4=O)CC3)C(=O)N2CCC(C)(C)C)C[C@H](C)N1 [Compound 476] | > 5
